In patent publication US20090286718A1, “Stable Aqueous Cyclosporin Compositions” (SIRION THERAPEUTICS, INC., priority 2008, published 2009):
Where two headings read alike, the source gives them in different places.

Conditions: initial 0.220 %
Procedure: The samples were tested for stability after having been stored at 25° C. for three months.

## C/C=C/C=C/C(=O)O [Sorbic Acid, sorbic acid]
pH = 5.5
  Sorbic Acid Concentration (%) After 3 months storage at 25 C.: 0.13%
pH = 6.0
  Sorbic Acid Concentration (%) After 3 months storage at 25 C.: 0.21%
pH = 6.5
  Sorbic Acid Concentration (%) After 3 months storage at 25 C.: 0.21%
